Test results reported in paper PMC7582905, “Effect of Disulfide Cyclization of Ultrashort Cationic Lipopeptides on Antimicrobial Activity and Cytotoxicity” (International Journal of Molecular Sciences, 2020).
Where a SMILES comes first, the peptide text is derived from it. Bridges are numbered along the chain shown (N, C = ends). The star is where a group is joined. Palmitoyl = CCCCCCCCCCCCCCCC(=O)*

Experiments:
Type in all cases: cell-based
[1] = tested on: Candida albicans ATCC 10231; settings: ATCC 10231, 24 h
Method: (§1) The Staphylococcus aureus ATCC 25923, Staphylococcus epidermidis ATCC 14990, Escherichia coli ATCC 25922, Pseudomonas aeruginosa ATCC 9027, Candida albicans ATCC 10231, Candida glabrata ATCC 15126, Candida lipolytica PCM 2680-FY, and Candida tropicalis PCM 2709-FY strains were acquired from the Polish Collection of Microorganisms (PCM, Polish Academy of Sciences, Wrocław, Poland) and from the American Type Culture Collection (ATCC). All the strains were stored at −80 °C in Roti-Store cryo vials and before the tests were transferred into fresh Mueller–Hinton broth (MHB, Biocorp, Warsaw, Poland) for bacteria or RPMI-1640 (Sigma-Aldrich, Steinheim, Germany) for fungi and incubated for 24 h at 37 °C. Then, the cultures were seeded on Mueller–Hinton agar (BioMaxima, Lublin, Poland) or Sabouraud dextrose agar (SDA, BioMaxima, Lublin, Poland) plates, respectively, and incubated as just mentioned. These agar cultures were used for further microbiological assays. Cell densities for all assays were adjusted spectrophotometrically (Multiskan GO Microplate Spectrophotometer, Thermo Fisher Scientific, Vantaa, Finland) at 600 and 660 nm for bacteria and fungi, respectively.
(§2) The assay was performed to evaluate the effect of the lipopeptides in preventing biofilm formation. The preparation of inoculums was followed by a ca. 500-fold dilution of the 24 h cultures of microorganisms. Briefly, 50 μL of the compounds in the concentration range, diluted in appropriate medium, were prepared on 96-well polystyrene flat-bottom plates. Subsequently, the 50 μL of the bacterial/fungal inoculums were added to reach the same microbial density as that in the MBEC assay. After 24 h of incubation at 37 °C, the wells were rinsed three times with PBS and the fresh media with resazurin (4 g/L) were added. The MBICs were read after 1 h. All experiments were conducted in triplicate.

[2] = tested on: Candida glabrata ATCC 15126; settings: ATCC 15126, 24 h
Method: as §1, §2

[3] = tested on: Candida lipolytica PCM 2680-FY; settings: 24 h
Method: as §1, §2

[4] = tested on: Candida tropicalis PCM 2709-FY; settings: PCM 2709-FY, 24 h
Method: as §1, §2

[5] = tested on: Escherichia coli ATCC 25922; settings: ATCC 25922, 24 h
Method: as §1, §2

[6] = tested on: Pseudomonas aeruginosa ATCC 9027; settings: ATCC 9027, 24 h
Method: as §1, §2

[7] = tested on: Staphylococcus aureus ATCC 25923; settings: ATCC 25923, 24 h
Method: as §1, §2

[8] = tested on: Staphylococcus epidermidis ATCC 14990; settings: ATCC 14990, 24 h
Method: as §1, §2

[9] = tested on: human red blood cells (hRBCs); assay: Hemolysis assay; settings: peptide concentration causing 50% hemolysis; 4% (v/v) hRBCs in PBS, 1 h, 37 °C, absorbance 540 nm, triplicate
Method: The hemolysis assay was performed by using the method reported previously. Fresh human red blood cells (hRBCs) with anticoagulant (EDTA) were rinsed three times with a PBS by centrifugation at 800× g for 10 min and diluted with PBS. The lipopeptides were serially diluted on a 96-well microtiter polystyrene plate and hRBCs were added up to a final volume of 100 μL. The peptide concentration ranged between 0.5 and 256 μg/mL and the final hRBCs concentration was 4% (v/v). Controls for zero hemolysis (blank) and 100% hemolysis consisted of hRBCs suspended in PBS and 1% of Triton-X 100, respectively. The plate was incubated for 1 h at 37 °C and then centrifuged (800× g, 10 min, 4 °C). Subsequently, the supernatant was […] to new microtiter plates and the absorbance at 540 nm was measured. All experiments were conducted in triplicate. HC50 was calculated using an ic50.tk tool. Protocol of the study received approval from the local Bioethics Committee at the Medical University of Gdańsk (NKBBN/262/2019, approval date: 10 June 2019).

[10] = tested on: human cervical adenocarcinoma cell line (HeLa S3); assay: MTT assay; settings: 24 h incubation at 37 °C, six replicates per concentration, repeated at least twice
Method: (§3) To assess the cytotoxicity of the test lipopeptides (IC50), the classic MTT assay on 96-well polystyrene plates was performed for human keratinocytes (HaCaT) and human cervical adenocarcinoma cell line (HeLa S3) acquired from the ATCC. The assay utilizes colorimetric determination of the cell metabolic activity and the color intensity reflects the number of live cells that can be measured spectrophotometrically. The cell line was cultured in a Dulbecco’s modified Eagle Medium (Invitrogen) supplemented with 10% fetal bovine serum (v/v), 100 units/mL of penicillin, 100 μg/mL of streptomycin, and 2 mM l-glutamine and was stored at 37 °C in a humidified 5% CO2 incubator. Briefly, a day after plating of 500 cells per well, a series of concentrations (0.1–200 μg/mL) of the test compounds were applied. DMSO was added to the control cells at a final concentration of 1.0% (v/v), which was related to the maximal concentration of the solvent compounds used in the experiment. After 24 h of incubation with the lipopeptides at 37 °C in a humidified 5% CO2 incubator, a medium containing 1 mg/mL of MTT (3-(4,5-dimethylthiazol-2-yl)-2,5-diphenyltetrazolium bromide) was added to the wells up to a final concentration of 0.5 mg/mL. Subsequently, the plates were incubated at 37 °C for 4 h. Then, the medium was removed by suction, and the formazan product was solubilized with DMSO. The background absorbance at 630 nm was subtracted from that at 570 nm for each well (Epoch, BioTek Instruments, Winooski, VT, USA). Six replicates were conducted for each concentration. All experiments were repeated at least twice and the resulting IC50 values were calculated with a GraFit 7 software (v. 7.0, Erithacus, Berkley, CA, USA).

[11] = tested on: human keratinocytes (HaCaT); assay: MTT assay; settings: 24 h incubation at 37 °C, six replicates per concentration, repeated at least twice
Method: as §3

HeLa IC50 [10] [µg/mL] | SMILES | MBIC C. albicans [1] [µg/mL] | MBIC C. glabrata [2] [µg/mL] | MBIC C. lipolytica [3] [µg/mL] | MBIC C. tropicalis [4] [µg/mL] | MBIC E. coli [5] [µg/mL] | MBIC P. aeruginosa [6] [µg/mL] | MBIC S. aureus [7] [µg/mL] | MBIC S. epidermidis [8] [µg/mL] | HC50 [9] [µg/mL] | HaCaT IC50 [11] [µg/mL]
3.9 ± 1.1 | CCCCCCCCCCCCCCCC(=O)N[C@@H](CCCCN)C(=O)N[C@@H](CCCCN)C(=O)N[C@@H](CCCCN)C(N)=O [L1, C16-KKK-NH2] | 128 | 128 | 32 | 16 | 32 | 32 | 32 | 16 | 90.0 ± 6.5 | 5.2 ± 0.6
8.4 ± 1.7 | CCCCCCCCCCCCCCCC(=O)N[C@@H](CCCNC(=N)N)C(=O)N[C@@H](CCCCN)C(=O)N[C@@H](CCCCN)C(=O)N[C@@H](CCCCN)C(N)=O [L3, C16-RKKK-NH2] (Palmitoyl-RKKK-NH2) | 64 | 64 | 16 | 16 | 32 | 64 | 32 | 16 | 79.1 ± 6.1 | 23.6 ± 3.4

Further lines, the molecule ahead of its results:

SMILES | HeLa IC50 [10] [µg/mL] | MBIC C. albicans [1] [µg/mL] | MBIC C. glabrata [2] [µg/mL] | MBIC C. lipolytica [3] [µg/mL] | MBIC C. tropicalis [4] [µg/mL] | MBIC E. coli [5] [µg/mL] | MBIC P. aeruginosa [6] [µg/mL] | MBIC S. aureus [7] [µg/mL] | MBIC S. epidermidis [8] [µg/mL] | HC50 [9] [µg/mL] | HaCaT IC50 [11] [µg/mL]
CCCCCCCCCCCCCCCC(=O)N[C@@H](CCCCN)C(=O)N[C@@H](CCCNC(=N)N)C(=O)N[C@@H](CCCCN)C(=O)N[C@@H](CCCCN)C(N)=O [L4, C16-KRKK-NH2] (Palmitoyl-KRKK-NH2) | 3.0 ± 0.6 | 32 | 64 | 16 | 8 | 32 | 32 | 16 | 8 | 79.8 ± 9.0 | 4.3 ± 0.9
CCCCCCCCCCCCCCCC(=O)N[C@H]1CSSC[C@@H](C(N)=O)NC(=O)[C@H](CCCCN)NC(=O)[C@H](CCCNC(=N)N)NC(=O)[C@H](CCCCN)NC(=O)[C@H](CCCCN)NC1=O [C5, C16-CKKRKC-NH2] (Palmitoyl-CKKRKC-NH2; disulfide 1-6) | 21.9 ± 4.5 | 16 | 16 | 8 | 8 | 32 | 64 | 32 | 16 | 97.0 ± 15.4 | 12.9 ± 4.6
CCCCCCCCCCCCCCCC(=O)N[C@H]1CSSC[C@@H](C(N)=O)NC(=O)[C@H](CCCCN)NC(=O)[C@H](CCCCN)NC(=O)[C@H](CCCNC(=N)N)NC(=O)[C@H](CCCCN)NC1=O [C4, C16-CKRKKC-NH2] (Palmitoyl-CKRKKC-NH2; disulfide 1-6) | 27.5 ± 3.4 | 8 | 16 | 4 | 4 | 32 | 32 | 16 | 8 | 122.4 ± 16.5 | 33.8 ± 3.1
